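Following 48 hours of exposure in 96-well plates, responses at five concentrations were used to interpolate endpoints linearly. Here, GI50 denotes the concentration required for 50% inhibition of growth.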 The source made the active and inactive calls. Cut-off read from the data, not from the text of the source: active = GI50 up to about 1.1 µM and inactive = higher.
Assays:
Test in all cases: inhibition of tumour cell growth, NCI panel, 48 h
OVCAR-8 = tested on: OVCAR-8
DU-145 = tested on: DU-145
OVCAR-5 = tested on: OVCAR-5
CCRF-CEM = tested on: CCRF-CEM
TK-10 = tested on: TK-10
U-251 = tested on: U-251
SNB-75 = tested on: SNB-75
SW-620 = tested on: SW-620
SK-OV-3 = tested on: SK-OV-3
A498 = tested on: A498
MDA-MB-435 = tested on: MDA-MB-435
NCI-H460 = tested on: NCI-H460
PC-3 = tested on: PC-3
ACHN = tested on: ACHN
NCI/ADR-RES = tested on: NCI/ADR-RES
786-0 = tested on: 786-0
CAKI-1 = tested on: CAKI-1
HOP-92 = tested on: HOP-92
NCI-H23 = tested on: NCI-H23
OVCAR-3 = tested on: OVCAR-3
HCC 2998 = tested on: HCC 2998
MDA-MB-231 = tested on: MDA-MB-231
HCT-15 = tested on: HCT-15
KM12 = tested on: KM12
T47D = tested on: T47D
RPMI-8226 = tested on: RPMI-8226
SNB-19 = tested on: SNB-19
SF-268 = tested on: SF-268
SF-295 = tested on: SF-295
K562 = tested on: K562
SK-MEL-28 = tested on: SK-MEL-28
UACC-257 = tested on: UACC-257
BT-549 = tested on: BT-549
COLO 205 = tested on: COLO 205
M14 = tested on: M14
HOP-62 = tested on: HOP-62
SK-MEL-2 = tested on: SK-MEL-2
UO-31 = tested on: UO-31
OVCAR-4 = tested on: OVCAR-4
UACC-62 = tested on: UACC-62
A549 = tested on: A549
SK-MEL-5 = tested on: SK-MEL-5
EKVX = tested on: EKVX
LOX IMVI = tested on: LOX IMVI
HCT-116 = tested on: HCT-116
NCI-H226 = tested on: NCI-H226
RXF 393 = tested on: RXF 393

Q: Which GI50 (OVCAR-8) does the source give for `COC(=O)C(N)CCCC(N)C(=O)NC(C)C(=O)NC(CCC(=O)NCCCNc1ccc([N+](=O)[O-])c2[nH]c3ccccc3c(=O)c12)C(N)=O` (configuration not stated) here?
A: The GI50 was 3.37 µM (inactive).

Q: What about the GI50 (DU-145) of the same compound?
A: The GI50 was 6.56 µM (inactive).

Q: And the GI50 (OVCAR-5)?
A: Its GI50 is 10.4 µM (inactive).

Q: What about the GI50 (CCRF-CEM) of the same compound?
A: The GI50 was 3.9 µM (inactive).

Q: What about the GI50 (TK-10) of the same compound?
A: Its GI50 is 10 µM (inactive).

Q: What about the GI50 (U-251) of the same compound?
A: The GI50 was 4.66 µM (inactive).

Q: And the GI50 (SNB-75)?
A: Its GI50 is 9.89 µM (inactive).

Q: What about the GI50 (SW-620) of the same compound?
A: The GI50 was 3.7 µM (inactive).

Q: What about the GI50 (SK-OV-3) of the same compound?
A: The GI50 was 11.4 µM (inactive).

Q: What about the GI50 (A498) of the same compound?
A: Its GI50 is 15.1 µM (inactive).

Q: What about the GI50 (MDA-MB-435) of the same compound?
A: Its GI50 is 5.01 µM (inactive).

Q: And the GI50 (NCI-H460)?
A: The GI50 was 3.59 µM (inactive).

Q: What about the GI50 (PC-3) of the same compound?
A: Its GI50 is 5.56 µM (inactive).

Q: And the GI50 (ACHN)?
A: The GI50 was 3.68 µM (inactive).

Q: What about the GI50 (NCI/ADR-RES) of the same compound?
A: The GI50 was 6.07 µM (inactive).

Q: And the GI50 (786-0)?
A: Its GI50 is 4.53 µM (inactive).

Q: And the GI50 (CAKI-1)?
A: Its GI50 is 6.64 µM (inactive).

Q: And the GI50 (HOP-92)?
A: Its GI50 is 11.4 µM (inactive).

Q: What about the GI50 (NCI-H23) of the same compound?
A: The GI50 was 5.68 µM (inactive).

Q: What about the GI50 (OVCAR-3) of the same compound?
A: Its GI50 is 10.8 µM (inactive).

Q: And the GI50 (HCC 2998)?
A: Its GI50 is 6.82 µM (inactive).

Q: And the GI50 (MDA-MB-231)?
A: Its GI50 is 10.1 µM (inactive).

Q: What about the GI50 (HCT-15) of the same compound?
A: The GI50 was 3.67 µM.

Q: And the GI50 (KM12)?
A: Its GI50 is 4.91 µM (inactive).

Q: And the GI50 (T47D)?
A: The GI50 was 11.6 µM (inactive).

Q: And the GI50 (RPMI-8226)?
A: Its GI50 is 3.19 µM (inactive).

Q: And the GI50 (SNB-19)?
A: The GI50 was 4 µM (inactive).

Q: What about the GI50 (SF-268) of the same compound?
A: Its GI50 is 3.25 µM (inactive).

Q: What about the GI50 (SF-295) of the same compound?
A: Its GI50 is 6.24 µM (inactive).

Q: And the GI50 (K562)?
A: The GI50 was 6.67 µM (inactive).

Q: And the GI50 (SK-MEL-28)?
A: Its GI50 is 10.2 µM (inactive).

Q: What about the GI50 (UACC-257) of the same compound?
A: The GI50 was 8.79 µM (inactive).

Q: And the GI50 (BT-549)?
A: The GI50 was 12.7 µM (inactive).

Q: And the GI50 (COLO 205)?
A: The GI50 was 3.85 µM (inactive).

Q: And the GI50 (M14)?
A: Its GI50 is 5.4 µM (inactive).

Q: And the GI50 (HOP-62)?
A: Its GI50 is 7.26 µM (inactive).

Q: What about the GI50 (SK-MEL-2) of the same compound?
A: Its GI50 is 16.8 µM (inactive).

Q: What about the GI50 (UO-31) of the same compound?
A: Its GI50 is 3.49 µM (inactive).

Q: What about the GI50 (OVCAR-4) of the same compound?
A: The GI50 was 6.15 µM (inactive).

Q: And the GI50 (UACC-62)?
A: The GI50 was 2.42 µM (inactive).

Q: And the GI50 (A549)?
A: Its GI50 is 3.13 µM (inactive).

Q: And the GI50 (SK-MEL-5)?
A: The GI50 was 11.7 µM (inactive).

Q: What about the GI50 (EKVX) of the same compound?
A: The GI50 was 7.78 µM (inactive).

Q: What about the GI50 (LOX IMVI) of the same compound?
A: Its GI50 is 3.24 µM (inactive).

Q: What about the GI50 (HCT-116) of the same compound?
A: The GI50 was 2.33 µM (inactive).

Q: And the GI50 (NCI-H226)?
A: Its GI50 is 9.55 µM (inactive).

Q: And the GI50 (RXF 393)?
A: The GI50 was 9.55 µM (inactive).

From ChEMBL document CHEMBL1201862, “PubChem BioAssay data set” (2004)
